The values that follow come from US6583139B1, “Compounds which inhibit leukocyte adhesion mediated by VLA-4” (priority 1997, dated 2003).

Where a SMILES comes first, the peptide text is derived from it. The star is where a group is joined. Tos = Cc1ccc(S(=O)(=O)*)cc1; tBu = CC(C)(C)*

The melting point is the temperature of the solid-liquid transition.

For one data set, the system named is Experimental Autoimmune (or Allergic) Encephalomyelitis. The experiment in a line: Experimental Autoimmune Encephalomyelitis (EAE) model, motor impairment. It counts as in vivo. The following applies: rats or guinea pigs; treatment from Day 8, bid for five days, SC, PO or IP.
On to `Cc1ccc(S(=O)(=O)N2CCC[C@H]2C(=O)N[C@@H](Cc2ccc(OC(C)(C)C)cc2)C(=O)O)cc1` [Example 10, N-(Toluene-4-sulfonyl)-L-prolyl-4-(O-tert-butyl)-L-tyrosine] (Tos-Pro-Tyr(tBu)-OH), for which the “active in EAE in vivo assay (delayed the onset of symptoms, e.g. clinical scores no greater than 2 or slowed body weight loss as compared to the control)” value is recorded as “active”.
Take “N-(Toluene-4-sulfonyl)-L-(5,5-dimethyl) thiaprolyl-L-(N-benzyl)-histidine [Example 27]”: the “active in EAE in vivo assay (delayed the onset of symptoms, e.g. clinical scores no greater than 2 or slowed body weight loss as compared to the control)” value is “active”.

Tested on in a further data set: not given
Assay: not given
Conditions: not given
In turn, `Cc1ccc(S(=O)(=O)N2CCC[C@H]2C(=O)N[C@@H](C)C(=O)O)cc1` [Example 16, N-(Toluene-4-sulfonyl)-L-prolyl-L-alanine] (Tos-Pro-Ala-OH) returned a melting point of 160.5 to 162.5 °C.
`Cc1ccc(S(=O)(=O)N2CCC[C@H]2C(=O)N[C@@H](CC(=O)O)C(=O)O)cc1` [Example 19, N-(Toluene-4-sulfonyl)-L-prolyl-L-aspartic acid] (Tos-Pro-Asp-OH) gave a melting point of 174 to 176 °C.
On to `Cc1ccc(S(=O)(=O)N[C@@H](CCC(=O)O)C(=O)N[C@@H](Cc2ccc(O)cc2)C(=O)O)cc1` [Example 30, N-(Toluene-4-sulfonyl)-L-glutamyl-L-tyrosine] (Tos-Glu-Tyr-OH), for which the melting point fell in the range of 173 to 175 °C.
In turn, `Cc1ccc(S(=O)(=O)N2CCC[C@H]2C(=O)N[C@@H](Cc2ccc(OCCN(Cc3ccccc3)Cc3ccccc3)cc2)C(=O)O)cc1` [Example 45, N-(Toluene-4-sulfonyl)-L-prolyl-L-O-[2-(dibenzylamino)ethyl]-tyrosine] displayed a melting point of 106 to 110 °C.
In turn, `Cc1ccc(S(=O)(=O)N2CCC[C@H]2C(=O)N[C@@H](Cc2ccc(NC(=O)Nc3ccc(C#N)cc3)cc2)C(=O)O)cc1` [Example 49, N-(Toluene-4-sulfonyl)-L-prolyl-L-4-[3-(4-cyanophenyl)-ureido]-phenylalanine] yielded a melting point of 163 to 165 °C.
On the same count and under the same terms, in the case of `Cc1ccc(S(=O)(=O)N2CCC[C@H]2C(=O)N[C@@H](Cc2ccc(C(=O)N[C@@H]3Cc4ccccc4C=N3)cc2)C(=O)O)cc1` [Example 52, N-(Toluene-4-sulfonyl)-L-prolyl-L-4[(3S)-3,4-dihydro-isoquinolin-3-yl-aminocarbonyl]-phenylalanine] it was 145 to 150 °C; in that of `CC(C)OC(=O)[C@H](Cc1ccc(O)cc1)NC(=O)[C@@H]1CCCN1S(=O)(=O)c1cn(C)cn1` [Example 226, N-(1-Methylimidazol-4-sulfonyl)-L-prolyl-(4-hydroxyl)-L-phenylalanine isopropyl ester], 159 to 162 °C.
